The text below walks through data of patent US12024531B2, “Immunoproteasome inhibitors” (Principia Biopharma Inc., priority 2017, dated 2024).

Some results are limits rather than exact numbers.

Holding throughout (format): biochemical
Assay [1] addresses immunoproteasome LMP7/B5i subunit (Homo sapiens, UniProt P28062). In words: Caliper-based proteasome enzymatic activity assay, LMP7. The conditions noted are these: human recombinant immunoproteasome 0.3 nM, FAM peptide substrate 1 μM, rt 3 h.
In assay [2] the target is constitutive proteasome β5c subunit (Homo sapiens, UniProt P28074). The assay is described as follows: Caliper-based proteasome enzymatic activity assay, β5c. The conditions noted are these: human recombinant constitutive proteasome 0.3 nM, FAM peptide substrate 1 μM, rt 3 h.
Assay [3] addresses immunoproteasome LMP2 subunit (Homo sapiens, UniProt P28065). The assay is described as follows: Caliper-based proteasome enzymatic activity assay, LMP2. The conditions noted are these: human recombinant immunoproteasome 0.3 nM, FAM peptide substrate 1 μM, rt 2 h.

For the molecule `N#CC(=Cc1cccc(OCCC(=O)N[C@@H](Cc2ccccc2)B(O)O)c1)C(=O)NC1CCOCC1` [Example 10, (R)-1-(3-(3-(2-cyano-3-oxo-3-(tetrahydro-2H-pyran-4-ylamino)prop-1-enyl)phenoxy)propanamido)-2-phenylethylboronic Acid], the figures for the IC50 in assay [1], in assay [2] and in assay [3] were 5 nM, 74 nM and 970 nM, respectively.
For `CC(C)(C)NC(=O)C(C#N)=Cc1cccc(COC(=O)N[C@@H](Cc2ccccc2)B(O)O)c1` [Example 16, (R)-(1-((((3-(3-(tert-butylamino)-2-cyano-3-oxoprop-1-en-1-yl)benzyl)oxy)carbonyl)amino)-2-phenylethyl)boronic Acid] the same measures were 33 nM, 3680 nM and 3570 nM.
The corresponding values for `CN(C(=O)C(C#N)=Cc1cccc(OCCC(=O)N[C@@H](Cc2ccccc2)B(O)O)c1)c1ccccc1` [Example 22, (R)-(1-(3-(3-(2-cyano-3-(methyl(phenyl)amino)-3-oxoprop-1-en-1-yl)phenoxy)propanamido)-2-phenylethyl)boronic Acid] are 3 nM, 27 nM and 100 nM.
For `N#CC(=Cc1cccc(OCCC(=O)N[C@@H](Cc2coc3ccccc23)B(O)O)c1)c1ccccn1` [Example 23, (R)-(2-(benzofuran-3-yl)-1-(3-(3-(2-cyano-2-(pyridin-2-yl)vinyl)phenoxy)propanamido)ethyl)boronic Acid] the same measures were 0.8 nM, 8 nM and over 5000 nM.
Take `CN(C)C(=O)C(C#N)=Cc1cccc(CCCC(=O)N[C@@H](Cc2ccccc2)B(O)O)c1` [Example 24, (R)-(1-(4-(3-(2-cyano-3-(dimethylamino)-3-oxoprop-1-en-1-yl)phenyl)butanamido)-2-phenylethyl)boronic Acid]: the half-maximal inhibitory concentration (IC50) in assay [1] came out at 12 nM; in assay [2], 1930 nM; in assay [3], 1890 nM.
The corresponding values for `N#CC(=Cc1cccc(CCCC(=O)N[C@@H](Cc2ccccc2)B(O)O)c1)n1cncn1` [Example 25, (R)-(1-(4-(3-(2-cyano-2-(1H-1,2,4-triazol-1-yl)vinyl)phenyl)butanamido)-2-phenylethyl)boronic Acid] are 8 nM, 4150 nM and 3000 nM.
Turning to `COc1ccc(C=C(C#N)C(=O)N(C)C)cc1OCCC(=O)N[C@@H](Cc1ccccc1)B(O)O` [Example 26, (R)-(1-(3-(5-(2-cyano-3-(dimethylamino)-3-oxoprop-1-en-1-yl)-2-methoxyphenoxy)propanamido)-2-phenylethyl)boronic Acid], the half-inhibitory concentration (IC50) in assay [1] amounted to 4 nM; in assay [2] it was 34 nM; in assay [3] it was 310 nM.
With `CN(C)C(=O)C(C#N)=Cc1ccc(F)c(OCCC(=O)N[C@@H](Cc2ccccc2)B(O)O)c1` [Example 27, (R)-(1-(3-(5-(2-cyano-3-(dimethylamino)-3-oxoprop-1-en-1-yl)-2-fluorophenoxy)propanamido)-2-phenylethyl)boronic Acid], the IC50 turned out to be 3 nM in assay [1], 25 nM in assay [2] and 160 nM in assay [3].
The corresponding values for `N#CC(=Cc1ccc(F)c(OCCC(=O)N[C@@H](Cc2ccccc2)B(O)O)c1)c1ccccn1` [Example 28, (R)-(1-(3-(5-(2-cyano-2-(pyridin-2-yl)vinyl)-2-fluorophenoxy)propanamido)-2-phenylethyl)boronic Acid] are 2 nM, 34 nM and 49 nM.
The corresponding values for `COc1ccc(C=C(C#N)c2ccccn2)cc1OCCC(=O)N[C@@H](Cc1ccccc1)B(O)O` [Example 29, (R)-(1-(3-(5-(2-cyano-2-(pyridin-2-yl)vinyl)-2-methoxyphenoxy)propanamido)-2-phenylethyl)boronic Acid] are 6 nM, 36 nM and 17 nM.
Regarding `N#CC(=Cc1cccc(OCCC(=O)N[C@@H](Cc2ccccc2)B(O)O)c1)C(=O)N1CCC1` [Example 30, (R)-(1-(3-(3-(3-(azetidin-1-yl)-2-cyano-3-oxoprop-1-en-1-yl)phenoxy)propanamido)-2-phenylethyl)boronic Acid], the IC50 came out at 4 nM in assay [1], 120 nM in assay [2] and 150 nM in assay [3].
The corresponding values for `CCNC(=O)C(C#N)=Cc1cccc(OCCC(=O)N[C@@H](Cc2ccccc2)B(O)O)c1` [Example 31, (R)-(1-(3-(3-(2-cyano-3-(ethylamino)-3-oxoprop-1-en-1-yl)phenoxy)propanamido)-2-phenylethyl)boronic Acid] are 4 nM, 120 nM and 270 nM.
For `N#CC(=Cc1cccc(OCCC(=O)N[C@@H](Cc2ccccc2)B(O)O)c1)C(=O)N1CCN(C2COC2)CC1` [Example 32, (R)-(1-(3-(3-(2-cyano-3-(4-(oxetan-3-yl)piperazin-1-yl)-3-oxoprop-1-en-1-yl)phenoxy)propanamido)-2-phenylethyl)boronic Acid] the same measures were 4 nM, 60 nM and 180 nM.
For `N#CC(=Cc1cccc(OCCC(=O)N[C@@H](Cc2ccccc2)B(O)O)c1)c1ccc(C(F)(F)F)cn1` [Example 33, (R)-(1-(3-(3-(2-cyano-2-(5-(trifluoromethyl)pyridin-2-yl)vinyl)phenoxy)propanamido)-2-phenylethyl)boronic Acid] the same measures were 5 nM, 95 nM and 100 nM.
Consider `N#CC(=Cc1cccc(OCCC(=O)N[C@@H](Cc2ccccc2)B(O)O)c1)c1ncccc1F` [Example 34, (R)-(1-(3-(3-(2-cyano-2-(3-fluoropyridin-2-yl)vinyl)phenoxy)propanamido)-2-phenylethyl)boronic Acid], for which the figures for the IC50 in assay [1], in assay [2] and in assay [3] were 8 nM, 80 nM and 120 nM, respectively.
The corresponding values for `N#CC(=Cc1cccc(CCOC(=O)N[C@@H](Cc2ccccc2)B(O)O)c1)c1ccccn1` [Example 36, (R)-(1-(((3-(2-cyano-2-(pyridin-2-yl)vinyl)phenethoxy)carbonyl)amino)-2-phenylethyl)boronic Acid] are 8 nM, 320 nM and 3540 nM.
The corresponding values for `CN(C)C(=O)C(C#N)=Cc1cccc(OCCC(=O)N[C@@H](Cc2ccccc2)B(O)O)c1F` [Example 37, (R)-(1-(3-(3-(2-cyano-3-(dimethylamino)-3-oxoprop-1-en-1-yl)-2-fluorophenoxy)propanamido)-2-phenylethyl)boronic Acid] are 16.8 nM, 495 nM and 223 nM.
The corresponding values for `CN(C)C(=O)C(C#N)=Cc1ccc(Cl)c(OCCC(=O)N[C@@H](Cc2ccccc2)B(O)O)c1Cl` [Example 38, (R)-(1-(3-(2,6-dichloro-3-(2-cyano-3-(dimethylamino)-3-oxoprop-1-en-1-yl)phenoxy)propanamido)-2-phenylethyl)boronic Acid] are 7.3 nM, 162 nM and 223 nM.

Broadly, the IC50 is the concentration that inhibits the measured activity by half.
